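All cell lines were grown in 96-well plates and treated with compound for 48 hours. GI50 = concentration required for 50% inhibition of growth.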 Calls of active or inactive are those of the source. Rule as the data show it: active = GI50 up to about 1.1 µM and inactive = higher.
Experiments:
Assay in all cases: growth of human tumour cells (NCI), 48 h
SF-295 = tested on: SF-295
OVCAR-4 = tested on: OVCAR-4
U-251 = tested on: U-251
ACHN = tested on: ACHN
CAKI-1 = tested on: CAKI-1
NCI-H23 = tested on: NCI-H23
NCI-H226 = tested on: NCI-H226
M14 = tested on: M14
HT-29 = tested on: HT-29
UO-31 = tested on: UO-31
HCT-116 = tested on: HCT-116
A549 = tested on: A549
EKVX = tested on: EKVX
SK-MEL-2 = tested on: SK-MEL-2
A498 = tested on: A498

Measured: GI50

CN(O)C(=O)c1ccccc1
inactive: SF-295 > 100 µM | OVCAR-4 > 100 µM | U-251 > 100 µM | ACHN > 100 µM | CAKI-1 > 100 µM | NCI-H23 > 100 µM | NCI-H226 > 100 µM | M14 > 100 µM | HT-29 > 100 µM | UO-31 > 100 µM | HCT-116 > 100 µM | A549 > 100 µM

COc1ccc(-c2onc(-c3ccc([N+](=O)[O-])cc3)c2C2=NCCCN2)cc1
inactive: SF-295 53.2 µM | OVCAR-4 > 100 µM | U-251 > 100 µM | ACHN > 100 µM | CAKI-1 > 100 µM | NCI-H23 > 100 µM | NCI-H226 38.8 µM | M14 38.8 µM | HT-29 40.3 µM | EKVX > 100 µM | SK-MEL-2 > 100 µM | UO-31 18.4 µM | HCT-116 38.9 µM | A549 > 100 µM

Cc1cc2nc3c(=O)n(C)c(=O)nc-3n(-c3ccc(Cl)cc3)c2cc1C
inactive: SF-295 12.2 µM | OVCAR-4 5.16 µM | U-251 9.66 µM | ACHN 11.4 µM | A498 31.1 µM | CAKI-1 16.4 µM | NCI-H23 3.81 µM | NCI-H226 13.1 µM | M14 3.29 µM | HT-29 3.51 µM | EKVX 20.1 µM | SK-MEL-2 11.8 µM | UO-31 20 µM | HCT-116 11.9 µM | A549 3.52 µM

CCOC(=O)c1sc(Nc2cc(Cl)ccc2Cl)nc1C
inactive: SF-295 64 µM | OVCAR-4 > 100 µM | U-251 > 100 µM | ACHN 35.5 µM | A498 > 100 µM | NCI-H23 34.4 µM | NCI-H226 83.2 µM | HT-29 50.2 µM | EKVX > 100 µM | SK-MEL-2 95.1 µM | UO-31 > 100 µM | HCT-116 > 100 µM | A549 72.3 µM

C=C1C2Oc3ccccc3C1N(c1ccccc1)O2 (stereo not drawn)
inactive: SF-295 23.1 µM | OVCAR-4 20 µM | U-251 27.2 µM | ACHN 37.2 µM | CAKI-1 40.8 µM | NCI-H23 > 10 µM | NCI-H226 37.9 µM | M14 22.1 µM | HT-29 23 µM | EKVX 42.9 µM | SK-MEL-2 9.14 µM | UO-31 47.9 µM | HCT-116 20.3 µM | A549 30.4 µM

CCCCc1c2c(nc3c1CCCC3=O)C(=O)CCC2
inactive: SF-295 > 100 µM | OVCAR-4 > 100 µM | U-251 > 100 µM | ACHN > 100 µM | A498 > 100 µM | NCI-H23 > 100 µM | NCI-H226 > 100 µM | M14 > 100 µM | HT-29 > 100 µM | EKVX > 100 µM | SK-MEL-2 > 100 µM | UO-31 > 100 µM | HCT-116 > 100 µM | A549 > 100 µM

CCCCCCCCCCNC(=S)OC
inactive: SF-295 55.5 µM | OVCAR-4 47.2 µM | U-251 33.1 µM | ACHN 33.6 µM | A498 46.2 µM | CAKI-1 28.5 µM | NCI-H23 > 100 µM | M14 63.1 µM | HT-29 34.3 µM | EKVX 80 µM | UO-31 15.8 µM | HCT-116 37.9 µM | A549 34.3 µM

Cc1cc(N(CCC#N)CCC#N)ccc1/C=C1/N=C(c2ccccc2)N(N)C1=O
inactive: SF-295 46.1 µM | OVCAR-4 34.8 µM | U-251 63.7 µM | ACHN > 100 µM | A498 > 100 µM | CAKI-1 98.2 µM | NCI-H23 56.9 µM | NCI-H226 > 100 µM | M14 > 100 µM | HT-29 > 100 µM | EKVX > 100 µM | SK-MEL-2 > 100 µM | UO-31 > 100 µM | HCT-116 > 100 µM | A549 84.1 µM

CCN(CC)CCCNC(=O)C1COc2cc(-c3cc(=O)c4ccccc4o3)ccc2O1 (stereo not drawn)
inactive: SF-295 96.8 µM | OVCAR-4 72.6 µM | U-251 37.8 µM | ACHN 51.4 µM | A498 48.2 µM | CAKI-1 > 100 µM | NCI-H23 > 100 µM | NCI-H226 76 µM | M14 22.1 µM | HT-29 41.7 µM | EKVX > 100 µM | UO-31 27.4 µM | HCT-116 37.4 µM | A549 44.1 µM

Cc1ccc([N+](=O)[O-])cc1NC(=O)C(=O)Cc1occc(=O)c1O
inactive: SF-295 > 100 µM | U-251 > 100 µM | ACHN > 100 µM | A498 > 100 µM | CAKI-1 > 100 µM | NCI-H226 > 100 µM | HT-29 > 100 µM | EKVX > 100 µM | UO-31 > 100 µM | A549 > 100 µM

CC(=O)c1cc([N+](=O)[O-])ccc1OCC(=O)O
inactive: SF-295 > 100 µM | OVCAR-4 > 100 µM | U-251 > 100 µM | ACHN > 100 µM | A498 > 100 µM | CAKI-1 > 100 µM | NCI-H23 > 100 µM | NCI-H226 > 100 µM | M14 > 100 µM | HT-29 > 100 µM | EKVX > 100 µM | SK-MEL-2 > 100 µM | UO-31 > 100 µM | HCT-116 > 100 µM | A549 > 100 µM

C1=Nc2ccccc2Cn2nncc21
inactive: OVCAR-4 > 100 µM | U-251 26 µM | ACHN > 100 µM | CAKI-1 29.9 µM | NCI-H23 > 100 µM | NCI-H226 > 100 µM | M14 67.3 µM | HT-29 45.6 µM | EKVX 98.2 µM | SK-MEL-2 78.2 µM | UO-31 89.1 µM | HCT-116 35.7 µM | A549 > 100 µM

CC1=C(C(=O)NCc2ccccc2)C(c2ccc(C3C(C(=O)NCc4ccccc4)=C(C)NC(C)=C3C(=O)NCc3ccccc3)cc2)C(C(=O)NCc2ccccc2)=C(C)N1
inactive: SF-295 17.9 µM | OVCAR-4 15.2 µM | U-251 3.96 µM | ACHN 15.6 µM | A498 17.7 µM | CAKI-1 14 µM | NCI-H23 14.7 µM | NCI-H226 17.5 µM | M14 11.8 µM | HT-29 5.61 µM | EKVX 14.9 µM | SK-MEL-2 18.4 µM | UO-31 21.2 µM | HCT-116 3.02 µM | A549 24.3 µM

CC(Oc1ccc(OCC2CCCCC2)cc1)C(=O)N(CCO)CCO (stereo not drawn)
inactive: SF-295 > 100 µM | OVCAR-4 > 100 µM | U-251 > 100 µM | ACHN > 100 µM | A498 > 100 µM | NCI-H23 > 100 µM | NCI-H226 > 100 µM | M14 > 100 µM | HT-29 > 100 µM | SK-MEL-2 > 100 µM | UO-31 > 100 µM | HCT-116 > 100 µM | A549 > 100 µM

Clc1ccc(C[P+](c2ccccc2)(c2ccccc2)c2ccccc2)cc1Cl
inactive: SF-295 10.3 µM | OVCAR-4 4.4 µM | U-251 1.63 µM | ACHN 13.1 µM | A498 12.6 µM | CAKI-1 2.57 µM | NCI-H23 2.62 µM | NCI-H226 2.8 µM | M14 2.6 µM | HT-29 1.91 µM | SK-MEL-2 2.15 µM | HCT-116 1.93 µM | A549 4.49 µM

— ChEMBL document CHEMBL1201862, “PubChem BioAssay data set” (2004)
